Source: publication PMC13014258 (JACS Au, 2026)

Test system: CTSB
Assay: CTSB inhibitor study, CTSB channel fluorescence of the probes in cells
Type: cell-based
Details: HeLa cells, CA-074 500 nM 15 min, n = 30

## CCCNC(=O)[C@H]1O[C@@H]1C(=O)N[C@H](C(=O)N1CCC[C@H]1C(=O)O)[C@@H](C)CC [CTSB inhibitor]
Then MSS2/MSS3 10 μM 5 min
  CTSB (blue) channel intensities of MSS2 and MSS3 in inhibitor-treated cells at resting state: significantly reduced
Then MSS4/MSS5 10 μM 5 min
  CTSB (blue) channel intensities of MSS4 and MSS5 in inhibitor-treated cells at resting state: significantly reduced
